Laboratory results published in article PMC9435431, “Novel chemical entities inhibiting Mycobacterium tuberculosis growth identified by phenotypic high-throughput screening” (Scientific Reports, 2022).
In brackets after ≈: the same amount, converted by molar mass. Counter-ions that a name gives are not always drawn. Like-named read-outs stand apart in the source and are kept apart here.

System: wild-type M. tuberculosis
Test: microbe, parasite or virus in culture
Type: cell-based, Mycobacterium tuberculosis
[1] = Mycobacterium tuberculosis, 120 h, read-out: MIC
[2] = Mycobacterium tuberculosis, read-out: MIC

| Compound | IC90 (Mycobacterium tuberculosis) [µM] | MIC [1] [µM] | MIC [2] [µM] | anti-tubercular activity (in words) | MIC [µM] |
| --- | --- | --- | --- | --- | --- |
| Cc1nc(-c2ccccn2)nc(NCCNc2ccc(C(F)(F)F)cn2)c1Cl [APDP-2] | 33 | – | – | – | – |
| Cc1nc(-c2ccccn2)nc(NCc2ccccc2)c1Cl [APDP-3] | 6.3 | – | – | – | – |
| CC1C(CNC(=O)Nc2ccccc2)CC2CC1C2(C)C (centres unmarked) [HBU-2] | 4.9 | – | – | – | – |
| CC(=O)c1ccc(NC(=O)NC(C)C23CC4CC(CC(C4)C2)C3)cc1 (centres unmarked) [HBU-3] | 29 | – | – | – | – |
| O=C(NCCc1ccc(Br)cc1)NC12CC3CC(CC(C3)C1)C2 [HBU-4] | 12 | – | – | – | – |
| CC(NC(=O)Nc1nc(-c2ccc(Cl)cc2)cs1)C1CC2C=CC1C2 (centres unmarked) [HBU-5] | 13 | – | – | – | – |
| CCC1(N2CCC(c3ccc(C(C)(C)C)cc3)CC2)CCCCC1 [Molecule 4PP-2, 4-(4-tert-Butyl-phenyl)-1-(1-ethyl-cyclohexyl)-piperidine] | – | 2 ± 0.5 (≈ 0.655 µg/mL) | 2 (≈ 0.655 µg/mL) | – | – |
| CC(C)(C)c1ccc(C2CCN(CC3CCCCC3)CC2)cc1 [Molecule 4PP-3, 4-(4-t-Butylphenyl)-1-(cyclohexylmethyl)piperidine; 2,2,2-trifluoroacetic acid] | – | 6.8 ± 0.9 (≈ 2.13 µg/mL) | 6.8 (≈ 2.13 µg/mL) | – | – |
| c1ccc(C2CCN(CC3CCCCC3)CC2)cc1 [Molecule 4PP-4, 1-Cyclohexylmethyl-4-phenyl-piperidine] | – | 21 ± 9 (≈ 5.41 µg/mL) | 21 (≈ 5.41 µg/mL) | – | – |
| CC(C)(C)c1ccc(C2CCN(S(=O)(=O)C3CCCCC3)CC2)cc1 [Molecule 4PP-5, 4-(4-(t-Butyl)phenyl)-1-(cyclohexylsulfonyl)piperidine] | – | > 20 | – | lost whole-cell activity | – |
| CC(C)(C)c1ccc(C2CCN(C(=O)C3CCCCC3)CC2)cc1 [Molecule 4PP-6, (4-(4-(t-Butyl)phenyl)piperidin-1-yl)(cyclohexyl)methanone] | – | > 20 | – | lost whole-cell activity | – |
| CC(C)(C)NC(=O)N1CCC(c2ccc(C(C)(C)C)cc2)CC1 [Molecule 4PP-7, N-(t-Butyl)-4-(4-(tert-butyl)phenyl)piperidine-1-carboxamide] | – | > 20 | – | loss of activity | – |
| CC(C)(C)c1ccc(C2CCN(C(=O)N3CCCCC3)CC2)cc1 [Molecule 4PP-8, (4-(4-(t-Butyl)phenyl)piperidin-1-yl)(piperidin-1-yl)methanone] | – | > 20 | – | loss of activity | – |
| O=S(=O)(C1CCCCC1)N1CCC(c2ccccc2)CC1 [Molecule 4PP-9, 1-(Cyclohexylsulfonyl)-4-phenylpiperidine] | – | > 20 | – | lost activity | – |
| O=C(C1CCCCC1)N1CCC(c2ccccc2)CC1 [Molecule 4PP-10, Cyclohexyl(4-phenylpiperidin-1-yl) methanone] | – | > 20 | – | lost activity | – |
| CC(C)(C)NC(=O)N1CCC(c2ccccc2)CC1 [Molecule 4PP-11, N-(tert-butyl)-4-phenylpiperidine-1-carboxamide] | – | > 20 | – | lost activity | – |
| O=C(N1CCCCC1)N1CCC(c2ccccc2)CC1 [Molecule 4PP-12, (4-Phenylpiperidin-1-yl)(piperidin-1-yl)methanone] | – | > 20 | – | lost activity | – |
| O=C(NC1CCCCC1)N1CCC(c2ccccc2)CC1 [Molecule 4PP-13, N-cyclohexyl-4-phenylpiperidine-1-carboxamide] | – | > 20 | – | did not furnish activity | – |
| CC(C)(C)CC(=O)N1CCC(c2ccccc2)CC1 [Molecule 4PP-14, 3,3-Dimethyl-1-(4-phenylpiperidin-1-yl)butan-1-one] | – | > 20 | – | did not furnish activity | – |
| CC(C)(C)c1ccc(C2CCN(C3CCCCC3)CC2)cc1 [Molecule 4PP-16, 4-(4-t-Butyl-phenyl)-1-cyclohexyl-piperidine, hydrochloride] | – | 2.7 ± 0.8 | 2.7 | – | – |
| CN(C)C1CCC(N2CCC(c3ccc(C(C)(C)C)cc3)CC2)CC1 (centres unmarked) [Molecule 4PP-17, 4-(4-(4-(t-Butyl)phenyl)piperidin-1-yl)-N,N-dimethylcyclohexan-1-amine] | – | > 20 | – | detrimental to the activity | – |
| COC(=O)C1CCC(N2CCC(c3ccc(C(C)(C)C)cc3)CC2)CC1 (centres unmarked) [Molecule 4PP-18, Methyl 4-(4-(4-(tert-butyl)phenyl)piperidin-1-yl)cyclohexane-1-carboxylate] | – | > 20 | – | loss in activity | – |
| CC(C)(C)c1ccc(C2CCN(C3CCC(C(=O)O)CC3)CC2)cc1 (centres unmarked) [Molecule 4PP-19, 4-(4-(4-(tert-Butyl)phenyl)piperidin-1-yl)cyclohexane-1-carboxylic acid] | – | > 20 | – | loss in activity | – |

| Compound | IC90 (Mycobacterium tuberculosis) [µM] | MIC [1] [µM] | MIC [2] [µM] | anti-tubercular activity (in words) | MIC [µM] |
| --- | --- | --- | --- | --- | --- |
| CC(C)(C)c1ccc(C2CCN(C3CCC(=O)CC3)CC2)cc1 [Molecule 4PP-20, 4-[4-(4-t-Butyl-phenyl)-piperidin-1-yl]-cyclohexanone] | – | > 20 | – | loss in activity | – |
| CN(C)C1CCC(N2CCC(c3ccccc3)CC2)CC1 (centres unmarked) [Molecule 4PP-21, N,N-dimethyl-4-(4-phenylpiperidin-1-yl)cyclohexan-1-amine] | – | > 20 | – | loss of activity | – |
| COC(=O)C1CCC(N2CCC(c3ccccc3)CC2)CC1 (centres unmarked) [Molecule 4PP-22, Methyl 4-(4-phenylpiperidin-1-yl)cyclohexane-1-carboxylate] | – | > 20 | – | loss of activity | – |
| OC1CCC(N2CCC(c3ccccc3)CC2)CC1 (centres unmarked) [Molecule 4PP-23, 4-(4-Phenylpiperidin-1-yl)cyclohexan-1-ol] | – | > 20 | – | loss of activity | – |
| CC(C)(C)c1ccc(C2CCN(C3CCOCC3)CC2)cc1 [Molecule 4PP-24, 4-(4-(tert-Butyl)phenyl)-1-(tetrahydro-2H-pyran-4-yl)piperidine] | – | > 20 | > 20 | – | – |
| CN1CCC(N2CCC(c3ccc(C(C)(C)C)cc3)CC2)CC1 [Molecule 4PP-25, 4-(4-(tert-Butyl)phenyl)-1'-methyl-1,4'-bipiperidine] | – | > 20 | > 20 | – | – |
| c1ccc(C2CCN(C3CCOCC3)CC2)cc1 [Molecule 4PP-26, 4-Phenyl-1-(tetrahydro-2H-pyran-4-yl)piperidine] | – | > 20 | > 20 | – | – |
| CN1CCC(N2CCC(c3ccccc3)CC2)CC1 [Molecule 4PP-27, 1'-Methyl-4-phenyl-1,4'-bipiperidine] | – | > 20 | > 20 | – | – |
| Brc1cccc(C2CCN(CC3CCCCC3)CC2)c1 [Molecule 4PP-28, 4-(3-Bromophenyl)-1-(cyclohexylmethyl)piperidine; 2,2,2-trifluoroacetic acid] | – | 2.8 ± 0.7 (≈ 0.942 µg/mL) | 2.8 (≈ 0.942 µg/mL) | – | – |
| Clc1cccc(C2CCN(CC3CCCCC3)CC2)c1 [Molecule 4PP-29, 4-(3-Chlorophenyl)-1-(cyclohexylmethyl)piperidine; 2,2,2-trifluoroacetic acid] | – | 4.1 (≈ 1.2 µg/mL) | 4.1 (≈ 1.2 µg/mL) | – | – |
| N#Cc1ccc(C2CCN(CC3CCCCC3)CC2)cc1.O=C(O)C(F)(F)F [Molecule 4PP-30, 4-[1-(Cyclohexylmethyl)-4-piperidyl]benzonitrile; 2,2,2-trifluoroacetic acid] | – | > 20 | – | inactive | – |
| O=C(O)C(F)(F)F.c1ccc2c(C3CCN(CC4CCCCC4)CC3)cccc2c1 [Molecule 4PP-31, 1-(Cyclohexylmethyl)-4-(1-naphthyl)piperidine; 2,2,2-trifluoroacetic acid] | 2.7 | 2.7 ± 2.4 | 2.7 | – | – |
| C1=CC2(CCN(CC3CCCCC3)CC2)c2ccccc21 [Molecule 4PP-35, 1'-(Cyclohexylmethyl)spiro[indene-1,4'-piperidine]; 2,2,2-trifluoroacetic acid] | – | 6.3 ± 0.1 (≈ 1.77 µg/mL) | 6.3 (≈ 1.77 µg/mL) | – | – |
| CC(=O)C1(c2ccccc2)CCN(CC2CCCCC2)CC1 [Molecule 4PP-36, 1-[1-(Cyclohexylmethyl)-4-phenyl-4-piperidyl]ethanone] | – | > 20 | – | – | – |
| N#CC1(c2ccccc2)CCN(CC2CCCCC2)CC1 [Molecule 4PP-37, 1-(Cyclohexylmethyl)-4-phenyl-piperidine-4-carbonitrile; 2,2,2-trifluoroacetic acid] | – | > 20 | – | – | – |
| CC(=O)NCC1(c2ccccc2)CCN(CC2CCCCC2)CC1 [Molecule 4PP-38, N-[[1-(Cyclohexylmethyl)-4-phenyl-4-piperidyl]methyl]acetamide; 2,2,2-trifluoroacetic acid] | – | > 20 | – | – | – |
| COC(=O)C1(c2ccccc2)CCN(CC2CCCCC2)CC1 [Molecule 4PP-39, Methyl 1-(cyclohexylmethyl)-4-phenyl-piperidine-4-carboxylate; 2,2,2-trifluoroacetic acid] | – | > 20 | – | – | – |
| OCC1(c2ccccc2)CCN(CC2CCCCC2)CC1 [Molecule 4PP-40, [1-(Cyclohexylmethyl)-4-phenyl-4-piperidyl]methanol; 2,2,2-trifluoroacetic acid] | – | > 20 | – | – | – |
| c1ccc(C2CCN(Cc3ccc4c(c3)OCO4)CC2)cc1 [Molecule 4PP-42, 1-(Benzo[d][1,3]dioxol-5-ylmethyl)-4-phenylpiperidine] | – | > 20 | – | inactive | – |
| CC(C)(C)CC(C)(C)N1CCC(c2ccc(C(C)(C)C)cc2)CC1 [Molecule 4PP-43, 4-(4-t-Butyl-phenyl)-1-(1,1,3,3-tetramethyl-butyl)-piperidine] | – | 5.9 (≈ 1.94 µg/mL) | – | – | 5.2 ± 1.9 (≈ 1.71 µg/mL) |
| CC(C)(C)CC(C)(C)N1CCC(c2ccccc2)CC1 [Molecule 4PP-44, 4-Phenyl-1-(1,1,3,3-tetramethyl-butyl)-piperidine] | 5.2 | 5.2 ± 5 (≈ 1.42 µg/mL) | 5.2 (≈ 1.42 µg/mL) | – | – |
| CC(C)(C)CC(C)(C)N1CC=C(c2c[nH]c3ncccc23)CC1 [Molecule 4PP-45, 3-(1-(2,4,4-Trimethylpentan-2-yl)-1,2,3,6-tetrahydropyridin-4-yl)-1H-pyrrolo[2,3-b]pyridine] | – | > 20 | – | inactive | – |
| CC(C)(C)CC(C)(C)N1CCC(c2c[nH]c3ncccc23)CC1 [Molecule 4PP-46, 3-(1-(2,4,4-Trimethylpentan-2-yl)piperidin-4-yl)-1H-pyrrolo[2,3-b]pyridine] | – | > 20 | – | inactive | – |
